No end group written: not given here.
Test system: Pseudomonas aeruginosa ATCC 9027
Test: Antimicrobial assay I, MIC by OD measurement
Format: cell-based
Conditions: 37° C. for 24 hours, absorbance 620 nm

Row | Substance | paerug9027 (MIC)
1 | FAKLLAKALKLKL-NH2 [P101] | 25 µg/mL
2 | FAKLLAKALKKL-NH2 [P103] | 25 µg/mL
3 | FALALKALKKLKKALKKAL-NH2 [P27] | 10 µg/mL

Test system: Staphylococcus aureus ATCC 6538
Test: Antimicrobial assay I, MIC by OD measurement
Format: cell-based
Conditions: 37° C. for 24 hours, absorbance 620 nm

Row | Substance | staph6538 (MIC)
4 | FAKLLAKALKLKL-NH2 [P101] | 10 µg/mL
5 | FAKLLAKALKKL-NH2 [P103] | 10 µg/mL
6 | FALALKALKKLKKALKKAL-NH2 [P27] | 10 µg/mL

Test system: yeast (Saccharomyces cerevisiae)
Test: Antimicrobial assay I, yeast assay in RPMI 1640
Format: cell-based
Conditions: RPMI 1640 media

Row | Substance | yeast (MIC or MFC)
7 | FAKLLAKALKLKL-NH2 [P101] | 100 µg/mL
8 | FAKLLAKALKKL-NH2 [P103] | 100 µg/mL
9 | FALALKALKKLKKALKKAL-NH2 [P27] | 25 µg/mL

Test system: S. aureus (MRSA)
Test: not given
Format: cell-based, Staphylococcus aureus
Conditions: Table 15, strain SAP0017; in µg/mL

Row | Substance | MIC S. aureus SAP0017
10 | FAKGVGKVGKKAL-NH2 [P137 (99)] | >128
11 | FAFAKIIAKIAKKII-NH2 [P140 (102)] | >128
12 | FAKLLAKLAKKAA-NH2 [P93 (59)] | >128
13 | FAKKLAKALL-NH2 [P58 (38)] | >128
14 | FALAKALKKAL-NH2 [P166 (127)] | >128
15 | FGKGIGKVGKKLL-NH2 [P132 (94)] | >128
16 | FAKLAKKALAKLL-NH2 [P148 (110)] | >128

Test system: S. epidermidis C621
Test: not given
Format: cell-based, Staphylococcus epidermidis
Conditions: Table 15

Row | Substance | MIC S. epidermidis C621
17 | FAKGVGKVGKKAL-NH2 [P137 (99)] | > 128 µg/mL
18 | FAFAKIIAKIAKKII-NH2 [P140 (102)] | > 128 µg/mL
19 | FAKLLAKLAKKAA-NH2 [P93 (59)] | > 128 µg/mL
20 | FAKKLAKALL-NH2 [P58 (38)] | > 128 µg/mL
21 | FALAKALKKAL-NH2 [P166 (127)] | > 128 µg/mL
22 | FGKGIGKVGKKLL-NH2 [P132 (94)] | > 128 µg/mL
23 | FAKLAKKALAKLL-NH2 [P148 (110)] | 128 µg/mL

Test system: E. coli UB1005
Test: not given
Format: cell-based, Escherichia coli
Conditions: Table 14

Row | Substance | MIC E. coli UB1005
24 | FAKGVGKVGKKAL-NH2 [P137 (99)] | > 128 µg/mL
25 | FAFAKIIAKIAKKII-NH2 [P140 (102)] | > 128 µg/mL
26 | FAKLLAKLAKKAA-NH2 [P93 (59)] | 128 µg/mL
27 | FAKKLAKALL-NH2 [P58 (38)] | > 128 µg/mL
28 | FALAKALKKAL-NH2 [P166 (127)] | > 128 µg/mL
29 | FGKGIGKVGKKLL-NH2 [P132 (94)] | 128 µg/mL
30 | FAKLAKKALAKLL-NH2 [P148 (110)] | 128 µg/mL

Test system: S. typhimurium 14028S
Test: not given
Format: cell-based, Salmonella typhimurium
Conditions: Table 14

Row | Substance | MIC S. typhimurium 14028S
31 | FAKGVGKVGKKAL-NH2 [P137 (99)] | > 128 µg/mL
32 | FAFAKIIAKIAKKII-NH2 [P140 (102)] | > 128 µg/mL
33 | FAKLLAKLAKKAA-NH2 [P93 (59)] | > 128 µg/mL
34 | FAKKLAKALL-NH2 [P58 (38)] | > 128 µg/mL
35 | FALAKALKKAL-NH2 [P166 (127)] | > 128 µg/mL
36 | FGKGIGKVGKKLL-NH2 [P132 (94)] | > 128 µg/mL
37 | FAKLAKKALAKLL-NH2 [P148 (110)] | > 128 µg/mL

Test system: P. aeruginosa H374
Test: not given
Format: cell-based, Pseudomonas aeruginosa
Conditions: Table 14; in µg/mL

Row | Substance | MIC P. aeruginosa H374
38 | FAKGVGKVGKKAL-NH2 [P137 (99)] | >128
39 | FAFAKIIAKIAKKII-NH2 [P140 (102)] | >128
40 | FAKLLAKLAKKAA-NH2 [P93 (59)] | 128
41 | FAKKLAKALL-NH2 [P58 (38)] | >128
42 | FALAKALKKAL-NH2 [P166 (127)] | >128
43 | FGKGIGKVGKKLL-NH2 [P132 (94)] | >128
44 | FAKLAKKALAKLL-NH2 [P148 (110)] | >128

Test system: Pseudomonas aeruginosa H187
Test: not given
Format: cell-based
Conditions: Table 15; in µg/mL

Row | Substance | MIC P. aeruginosa H187
45 | FAKGVGKVGKKAL-NH2 [P137 (99)] | >128
46 | FAFAKIIAKIAKKII-NH2 [P140 (102)] | >128
47 | FAKLLAKLAKKAA-NH2 [P93 (59)] | >128
48 | FAKKLAKALL-NH2 [P58 (38)] | >128
49 | FALAKALKKAL-NH2 [P166 (127)] | >128
50 | FGKGIGKVGKKLL-NH2 [P132 (94)] | >128
51 | FAKLAKKALAKLL-NH2 [P148 (110)] | >128

Test system: Candida albicans 105
Test: not given
Format: cell-based
Conditions: Table 15; in µg/mL

Row | Substance | MIC C. albicans 105
52 | FAKGVGKVGKKAL-NH2 [P137 (99)] | >128
53 | FAFAKIIAKIAKKII-NH2 [P140 (102)] | >128
54 | FAKLLAKLAKKAA-NH2 [P93 (59)] | 64
55 | FAKKLAKALL-NH2 [P58 (38)] | 64
56 | FALAKALKKAL-NH2 [P166 (127)] | >128
57 | FGKGIGKVGKKLL-NH2 [P132 (94)] | 128
58 | FAKLAKKALAKLL-NH2 [P148 (110)] | 128

Test system: BMKC
Test: Anti-cancer assay, MTT, LD50
Format: cell-based
Conditions: BMKC cloned melanoma line, 24 hours with peptide
From the text: (§1) Numbers are LD50 values (μg/mL).

Row | Substance | LD50 BMKC
59 | FAKLLAKALKLKL-NH2 [P101] | 160 µg/mL
60 | FAKLLAKALKKL-NH2 [P103] | 75 µg/mL
61 | FALALKALKKLKKALKKAL-NH2 [P27] | 44 µg/mL

Test system: H1299
Test: Anti-cancer assay, MTT, LD50
Format: cell-based
Conditions: 24 hours with peptide, lung large cell carcinoma
From the text: as §1

Row | Substance | H1299 LD50
62 | FAKLLAKALKLKL-NH2 [P101] | 340 µg/mL
63 | FAKLLAKALKKL-NH2 [P103] | 150 µg/mL

Test system: HeLaS3
Test: Anti-cancer assay, MTT, LD50
Format: cell-based
Conditions: 24 hours with peptide, cervical carcinoma
From the text: as §1

Row | Substance | HeLaS3 LD50
64 | FAKLLAKALKLKL-NH2 [P101] | 170 µg/mL
65 | FAKLLAKALKKL-NH2 [P103] | 70 µg/mL

Test system: MCF7
Test: Anti-cancer assay, MTT, LD50
Format: cell-based
Conditions: MCF7 breast adenocarcinoma line, MTT, 24 hours with peptide
From the text: as §1

Row | Substance | LD50 MCF7
66 | FAKLLAKALKLKL-NH2 [P101] | 250 µg/mL
67 | FAKLLAKALKKL-NH2 [P103] | 46 µg/mL
68 | FALALKALKKLKKALKKAL-NH2 [P27] | 14 µg/mL

Test system: PC3
Test: Anti-cancer assay, MTT, LD50
Format: cell-based
Conditions: 24 hours with peptide, prostate adenocarcinoma
From the text: as §1

Row | Substance | PC3 LD50
69 | FAKLLAKALKLKL-NH2 [P101] | 730 µg/mL
70 | FAKLLAKALKKL-NH2 [P103] | 330 µg/mL

Test system: SW480
Test: Anti-cancer assay, MTT, LD50
Format: cell-based
Conditions: SW480 colon adenocarcinoma line, 24 hours with peptide
From the text: as §1

Row | Substance | LD50 SW480
71 | FAKLLAKALKLKL-NH2 [P101] | 170 µg/mL
72 | FAKLLAKALKKL-NH2 [P103] | 90 µg/mL
73 | FALALKALKKLKKALKKAL-NH2 [P27] | 26 µg/mL

Test system: not listed separately
Test: in vitro
Format: cell-based, human
Conditions: human, human red blood cells, pH 7, hemolytic assay, concentration at 50% hemolysis, 1 hour at 37° C.; read-out: LD50

Row | Substance | HC50 at 1 h
74 | FAKLLAKALKLKL-NH2 [P101] | 550 µg/mL
75 | FAKLLAKALKKL-NH2 [P103] | 650 µg/mL
76 | FALALKALKKLKKALKKAL-NH2 [P27] | 125 µg/mL

Test system: P. aeruginosa H374
Test: not given
Format: cell-based, Pseudomonas aeruginosa
Conditions: MIC of chloramphenicol with peptide at ¼ MIC
Description: (§2) The synergistic effects of the inventive peptides with either chloramphenicol or nalidixic acid against efflux mutants of Pseudomonas aeruginosa were investigated. The MIC values were determined for either nalidixic acid or chloramphenicol alone as baselines. Peptides were added at their ¼ MIC concentration, and the concentration of either nalidixic acid or chloramphenicol to arrive at the MIC was determined. […] The fractional inhibitory concentration (FIC) index was used to determine synergy between peptides and antibiotics. Two-fold serial dilutions of antibiotic were tested in the presence of a constant amount of peptide, equal to one quarter of peptide MIC. The FIC index was determined as follows: FIC=0.25+MICantibiotic in combination/MICantibiotic alone. An FIC index of 0.5 or less is considered as synergy.

Row | Substance | MIC Cm-comb.
77 | FAKLLAKALKLKL-NH2 [P101] | 16 µg/mL
78 | FAKLLAKALKKL-NH2 [P103] | 8 µg/mL

Same assay, conditions: MIC of nalidixic acid with peptide at ¼ MIC

Row | Substance | MIC Nal-comb.
79 | FAKLLAKALKLKL-NH2 [P101] | 5000 µg/mL
80 | FAKLLAKALKKL-NH2 [P103] | 625 µg/mL

Same assay, conditions: chloramphenicol + peptide at ¼ MIC, 0.5 or less = synergy

Row | Substance | FIC Index
81 | FAKLLAKALKLKL-NH2 [P101] | 1.25
82 | FAKLLAKALKKL-NH2 [P103] | 0.75
83 | FALALKALKKLKKALKKAL-NH2 [P27] | 0.75

Same assay, conditions: nalidixic acid + peptide at ¼ MIC, FIC=0.25+MIC comb/MIC alone, 0.5 or less = synergy

Row | Substance | FIC Index
84 | FAKLLAKALKLKL-NH2 [P101] | 1.25
85 | FAKLLAKALKKL-NH2 [P103] | 0.375
86 | FALALKALKKLKKALKKAL-NH2 [P27] | 0.25

Test system: P. aeruginosa H774
Test: not given
Format: cell-based, Pseudomonas aeruginosa
Conditions: P. aeruginosa H744; nalidixic acid + peptide at ¼ MIC; 0.5 or less = synergy
Description: as §2

Row | Substance | FIC Index
87 | FAKLLAKALKLKL-NH2 [P101] | 1.25
88 | FAKLLAKALKKL-NH2 [P103] | 1.25
89 | FALALKALKKLKKALKKAL-NH2 [P27] | 1.25

Test system: P. aeruginosa
Test: not given
Format: cell-based, Pseudomonas aeruginosa
Conditions: P. aeruginosa H744; MIC of nalidixic acid with peptide at ¼ MIC
Description: as §2

Row | Substance | MIC Nal-comb.
90 | FAKLLAKALKLKL-NH2 [P101] | 624 µg/mL
91 | FAKLLAKALKKL-NH2 [P103] | 624 µg/mL

Test system: WI38
Test: not given
Conditions: MTT, 24 hours with peptide; normal fibroblast line

Row | Substance | WI38 LD50
92 | FAKLLAKALKLKL-NH2 [P101] | 300 µg/mL
93 | FAKLLAKALKKL-NH2 [P103] | 26 µg/mL

Test system: not listed separately
Test: in vitro
Conditions: human, WI38 normal lung fibroblast cells, LD50 WI38, WI38 normal lung fibroblast line, MTT, 24 hours with peptide

Row | Substance | CC50 at 24 h
94 | FAKLLAKALKLKL-NH2 [P101] | 300 µg/mL
95 | FAKLLAKALKKL-NH2 [P103] | 26 µg/mL
96 | FALALKALKKLKKALKKAL-NH2 [P27] | 37 µg/mL

Same assay, conditions: human, WI38 normal lung fibroblast cells, WI38 LD50, MTT, 24 hours with peptide; normal fibroblast line

Row | Substance | CC50 at 24 h
97 | FALALKALKKLKKALKKAL-NH2 [P27] | 520 µg/mL
